Tested on: histamine induced blood glucose rise
Experiment: Histamine induced hyperglycemia in mice
Assay type: in vivo
Conditions: 1.0 mg/kg ip, 30 min before histamine chloride (90 nmol icv); blood glucose at 0 and 40 min; male NMRI mice
Method: Conscious unfasted 25 g male NMRI mice are administered histamine chloride (90 nmol) icv according to the method of Nishibori et al. (J. Pharmacol. Exp. Therap. 241, […], 1987). Blood glucose is determined at time 0 and 40 min after the histamine injection. Test compounds are administered at 1.0 mg/kg ip 30 min before the histamine injection, and % inhibition refers to the capacity of the compounds to inhibit the histamine induced blood glucose rise.

## O=C(O)CCN1CCN2c3ccccc3Sc3ccccc3C2C1 (stereo not shown) [Example 4, 3-(1,3,4,14b-Tetrahydro-2H-dibenzo[b,f]pyrazino[1,2-d][1,4]thiazepin-2-yl)-propionic acid]
  % inhibition of histamine induced hyperglycemia: 48%
